Measured values taken from publication doi:10.1101/735704v2, “Selectivity filter instability dominates the low intrinsic activity of the TWIK-1 K2P K^+ Channel” (biorxiv, 2019).

Biological target: T1, TWIK-1* (K2P1.1/KCNK1, I293A/I294A trafficking mutant) (Homo sapiens, UniProt O00180, I293A/I294A)
T1 construct: full-length channel with mutated di-isoleucine endocytic retention motif (I293A/I294A), subcloned into pFAW, mRNA-injected Xenopus oocytes, giant excised inside-out patches; homodimer
T1 sequence (O00180 1-336 I293A/I294A): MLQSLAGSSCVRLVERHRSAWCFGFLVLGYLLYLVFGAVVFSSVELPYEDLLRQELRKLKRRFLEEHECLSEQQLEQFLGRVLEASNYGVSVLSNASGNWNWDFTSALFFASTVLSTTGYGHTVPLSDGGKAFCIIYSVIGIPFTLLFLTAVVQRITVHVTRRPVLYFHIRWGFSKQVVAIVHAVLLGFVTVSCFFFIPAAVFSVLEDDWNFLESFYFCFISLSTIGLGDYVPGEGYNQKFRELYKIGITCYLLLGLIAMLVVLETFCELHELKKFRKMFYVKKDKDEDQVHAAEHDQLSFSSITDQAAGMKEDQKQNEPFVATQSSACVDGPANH
Assay: giant excised inside-out patch electrophysiology, Xenopus oocytes, Hill fit
Type: cell-based

CCCCC[N+](CCCCC)(CCCCC)CCCCC [tetrapentylammonium]
IC50: 3.3 ± 0.1 µM
